Data reported in US10336762B2 (priority 2017, dated 2019).

Key:
[1] = molecular target: IRAK4 enzyme (Homo sapiens (Human), UniProt Q9NWZ3); assay: biochemical; assay type: biochemical; details: IRAK4 enzyme, TR-FRET (HTRF), 500 μM ATP
[2] = system: TNFα; assay: cells; assay type: cell-based, human; details: Homo sapiens, Monocyte, LPS-stimulated human monocytes, TNFα content; read-out: EC50 TNF

Chain of IRAK4 enzyme (Q9NWZ3 whole entry): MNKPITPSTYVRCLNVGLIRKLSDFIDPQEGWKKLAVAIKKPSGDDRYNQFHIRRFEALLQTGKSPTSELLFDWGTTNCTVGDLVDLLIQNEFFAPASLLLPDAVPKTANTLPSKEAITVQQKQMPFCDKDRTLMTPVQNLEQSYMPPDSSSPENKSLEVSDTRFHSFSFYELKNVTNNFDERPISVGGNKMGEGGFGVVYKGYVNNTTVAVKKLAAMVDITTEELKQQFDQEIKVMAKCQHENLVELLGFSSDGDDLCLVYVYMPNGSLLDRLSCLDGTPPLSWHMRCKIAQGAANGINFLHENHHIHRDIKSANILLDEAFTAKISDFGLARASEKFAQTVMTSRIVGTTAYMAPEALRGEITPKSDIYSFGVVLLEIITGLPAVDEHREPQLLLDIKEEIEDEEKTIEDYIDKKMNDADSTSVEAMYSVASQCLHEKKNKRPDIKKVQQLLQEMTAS

CCOc1cc(Nc2cc(-c3ccc4cc(C#N)cnn34)ncc2C(=O)NC[C@@H](F)C(C)(C)O)cnc1-c1cnco1 [Example 635, (R)-6-(3-cyanopyrrolo[1,2-b]pyridazin-7-yl)-4-((5-ethoxy-6-(oxazol-5-yl)pyridin-3-yl)amino)-N-(2-fluoro-3-hydroxy-3-methylbutyl)nicotinamide]
IC50 [1]: 8 nM | EC50 [2]: > 10000 nM

CC(C)(O)[C@H](F)CNC(=O)c1cnc(-c2ccc3cc(C#N)cnn23)cc1NC1CC(Cc2cnco2)C1 (stereo partly drawn) [Example 636, (R)-6-(3-cyanopyrrolo[1,2-b]pyridazin-7-yl)-N-(2-fluoro-3-hydroxy-3-methylbutyl)-4-((3-(oxazol-5-ylmethyl)cyclobutyl)amino)nicotinamide]
IC50 [1]: < 1 nM | EC50 [2]: 33 nM

CC(C)(O)[C@H](F)CNC(=O)c1cnc(-c2ccc3cc(C#N)cnn23)cc1N[C@H]1CC[C@H](c2nnco2)CC1 [Example 637, 4-(((1r,4R)-4-(1,3,4-oxadiazol-2-yl)cyclohexyl)amino)-6-(3-cyano-pyrrolo[1,2-b]pyridazin-7-yl)-N-((R)-2-fluoro-3-hydroxy-3-methylbutyl) nicotinamide]
IC50 [1]: < 1 nM | EC50 [2]: 21 nM

CC(C)(O)[C@H](F)CNC(=O)c1cnc(-c2ccc3cc(C#N)cnn23)cc1N[C@@H]1CC[C@@H](c2cnco2)OC1 [Example 639, 6-(3-cyanopyrrolo[1,2-b]pyridazin-7-yl)-N-((R)-2-fluoro-3-hydroxy-3-methylbutyl)-4-(((3R,6S)-6-(oxazol-5-yl)tetrahydro-2H-pyran-3-yl)amino)nicotinamide]
IC50 [1]: 1 nM | EC50 [2]: 43 nM

CC(C)(O)[C@H](F)CNC(=O)c1cnc(-c2ccc3cc(C#N)cnn23)cc1Nc1cnc(-c2cnco2)nc1 [Example 641, (R)-6-(3-cyanopyrrolo[1,2-b]pyridazin-7-yl)-N-(2-fluoro-3-hydroxy-3-methylbutyl)-4-((2-(oxazol-5-yl)pyrimidin-5-yl)amino)nicotinamide]
IC50 [1]: < 1 nM | EC50 [2]: 21 nM

CC(C)(O)[C@H](F)CNC(=O)c1cnc(-c2ccc3cc(C#N)cnn23)cc1N[C@H]1CC[C@H](c2nncs2)CC1 [Example 642, 4-(((1r,4R)-4-(1,3,4-thiadiazol-2-yl)cyclo-hexyl)amino)-6-(3-cyanopyrrolo[1,2-b]pyridazin-7-yl)-N-((R)-2-fluoro-3-hydroxy-3-methylbutyl)nicotinamide]
IC50 [1]: < 1 nM | EC50 [2]: 13 nM

CC(C)Nc1cc(-c2ccc3cc(C#N)cnn23)ncc1C(=O)NC[C@@H](F)C1(O)CC1 [Example 643, (R)-6-(3-cyanopyrrolo[1,2-b]pyridazin-7-yl)-N-(2-fluoro-2-(1-hydroxycyclo-propyl)ethyl)-4-(isopropyl-amino)nicotinamide]
IC50 [1]: < 1 nM | EC50 [2]: 8 nM

Cc1ncc(C2CCC(Nc3cc(-c4ccc5cc(C#N)cnn45)ncc3C(=O)NC[C@@H](F)C(C)(C)O)CC2)o1 (stereo partly drawn) [Example 644, (R)-6-(3-cyanopyrrolo[1,2-b]pyridazin-7-yl)-N-(2-fluoro-3-hydroxy-3-methylbutyl)-4-((4-(2-methyloxazol-5-yl)cyclo-hexyl)amino)nicotinamide]
IC50 [1]: 1 nM | EC50 [2]: 36 nM

CC(C)(O)[C@H](F)CNC(=O)c1cnc(-c2ccc3cc(C#N)cnn23)cc1Nc1ccc2c(N)n[nH]c2c1 [Example 647, (R)-4-((3-amino-1H-indazol-6-yl)amino)-6-(3-cyanopyrrolo[1,2-b]pyridazin-7-yl)-N-(2-fluoro-3-hydroxy-3-methyl-butyl)nicotinamide]
IC50 [1]: < 1 nM | EC50 [2]: 48 nM

COCc1ccc(Nc2cc(-c3ccc4cc(C#N)cnn34)ncc2C(=O)NC[C@@H](F)C(C)(C)O)cc1 [Example 648, (R)-6-(3-cyanopyrrolo[1,2-b]pyridazin-7-yl)-N-(2-fluoro-3-hydroxy-3-methylbutyl)-4-((4-(methoxymethyl)phenyl)amino)nicotinamide]
IC50 [1]: 1 nM | EC50 [2]: 51 nM

CC(C)(O)[C@H](F)CNC(=O)c1cnc(-c2ccc3cc(C#N)cnn23)cc1Nc1ccc(OC2COC2)nc1 [Example 649, (R)-6-(3-cyanopyrrolo[1,2-b]pyridazin-7-yl)-N-(2-fluoro-3-hydroxy-3-methylbutyl)-4-((6-(oxetan-3-yloxy)pyridin-3-yl)amino)nicotinamide]
IC50 [1]: 21 nM | EC50 [2]: > 10000 nM

CC(C)(O)[C@H](F)CNC(=O)c1cnc(-c2ccc3cc(C#N)cnn23)cc1Nc1ccc2c(c1)CC(=O)N2 [Example 650, (R)-6-(3-cyanopyrrolo[1,2-b]pyridazin-7-yl)-N-(2-fluoro-3-hydroxy-3-methylbutyl)-4-((2-oxo-indolin-5-yl)amino) nicotinamide]
IC50 [1]: < 1 nM | EC50 [2]: 16 nM

CC(C)(O)[C@H](F)CNC(=O)c1cnc(-c2ccc3cc(C#N)cnn23)cc1Nc1ccc2c(c1)OC(F)(F)O2 [Example 651, (R)-6-(3-cyanopyrrolo[1,2-b]pyridazin-7-yl)-4-((2,2-difluorobenzo[d][1,3]dioxol-5-yl)amino)-N-(2-fluoro-3-hydroxy-3-methylbutyl) nicotinamide]
IC50 [1]: 5 nM | EC50 [2]: 188 nM

CN1C(=O)C(C)(C)c2ccc(Nc3cc(-c4ccc5cc(C#N)cnn45)ncc3C(=O)NC[C@@H](F)C(C)(C)O)cc21 [Example 652, (R)-6-(3-cyanopyrrolo[1,2-b]pyridazin-7-yl)-N-(2-fluoro-3-hydroxy-3-methylbutyl)-4-((1,3,3-trimethyl-2-oxoindolin-6-yl)amino)nicotinamide]
IC50 [1]: 2 nM | EC50 [2]: 188 nM

CC1(C)C(=O)Nc2ccc(Nc3cc(-c4ccc5cc(C#N)cnn45)ncc3C(=O)NC[C@@H](F)C(C)(C)O)cc21 [Example 653, (R)-6-(3-cyanopyrrolo[1,2-b]pyridazin-7-yl)-4-((3,3-dimethyl-2-oxoindolin-5-yl)amino)-N-(2-fluoro-3-hydroxy-3-methylbutyl) nicotinamide]
IC50 [1]: 3 nM | EC50 [2]: 201 nM

CC(C)(O)[C@H](F)CNC(=O)c1cnc(-c2ccc3cc(C#N)cnn23)cc1N[C@H]1C[C@H](CNC(=O)OCC(F)(F)F)C1 [Example 654, 2,2,2-trifluoroethyl (((1R,3r)-3-((2-(3-cyanopyrrolo[1,2-b]pyridazin-7-yl)-5-(((R)-2-fluoro-3-hydroxy-3-methylbutyl)carbamoyl)pyridin-4-yl)amino)cyclo-butyl)methyl)carbamate]
IC50 [1]: < 1 nM | EC50 [2]: 15 nM

CC(C)(O)[C@H](F)CNC(=O)c1cnc(-c2ccc3cc(C#N)cnn23)cc1N[C@H]1C[C@H](CNC(=O)CC(F)(F)F)C1 [Example 655, 6-(3-cyanopyrrolo[1,2-b]pyridazin-7-yl)-N-((R)-2-fluoro-3-hydroxy-3-methylbutyl)-4-(((1r,3R)-3-((3,3,3-trifluoropropan-amido)methyl)cyclobutyl)amino)nicotinamide]
IC50 [1]: < 1 nM | EC50 [2]: 27 nM

CC(C)(O)[C@H](F)CNC(=O)c1cnc(-c2ccc3cc(C#N)cnn23)cc1N[C@H]1C[C@H](CNC(=O)CC(F)F)C1 [Example 656, 6-(3-cyanopyrrolo[1,2-b]pyridazin-7-yl)-4-(((1r,3R)-3-((3,3-difluoropropanamido)methyl)cyclobutyl)amino)-N-((R)-2-fluoro-3-hydroxy-3-methylbutyl) nicotinamide]
IC50 [1]: < 1 nM | EC50 [2]: 40 nM

CC(C)(O)[C@H](F)CNC(=O)c1cnc(-c2ccc3cc(C#N)cnn23)cc1Nc1ccc(N)nc1 [Example 657, (R)-4-((6-aminopyridin-3-yl)amino)-6-(3-cyano-pyrrolo[1,2-b]pyridazin-7-yl)-N-(2-fluoro-3-hydroxy-3-methylbutyl)nicotinamide]
IC50 [1]: < 1 nM | EC50 [2]: 23 nM

CC(C)(O)[C@H](F)CNC(=O)c1cnc(-c2ccc3cc(C#N)cnn23)cc1Nc1cnc(N)nc1 [Example 658, (R)-4-((2-aminopyrimidin-5-yl)amino)-6-(3-cyano-pyrrolo[1,2-b]pyridazin-7-yl)-N-(2-fluoro-3-hydroxy-3-methylbutyl)nicotinamide]
IC50 [1]: < 1 nM | EC50 [2]: 37 nM

CC(C)(O)[C@H](F)CNC(=O)c1cnc(-c2ccc3cc(C#N)cnn23)cc1N[C@H]1C[C@H](CNC(=O)[C@@H]2C[C@H]2F)C1 [Example 659, 6-(3-cyanopyrrolo[1,2-b]pyridazin-7-yl)-N-((R)-2-fluoro-3-hydroxy-3-methylbutyl)-4-(((1S,3R)-3-(((1S,2R)-2-fluoro-cyclopropane-1-carbox-amido)methyl)cyclobutyl)amino)nicotinamide]
IC50 [1]: < 1 nM | EC50 [2]: 16 nM

Cc1n[nH]c2cc(Nc3cc(-c4ccc5cc(C#N)cnn45)ncc3C(=O)NC[C@@H](F)C(C)(C)O)ccc12 [Example 660, (R)-6-(3-cyanopyrrolo[1,2-b]pyridazin-7-yl)-N-(2-fluoro-3-hydroxy-3-methylbutyl)-4-((3-methyl-1H-indazol-6-yl)amino) nicotinamide]
IC50 [1]: 1 nM | EC50 [2]: 64 nM

CNc1ccc(Nc2cc(-c3ccc4cc(C#N)cnn34)ncc2C(=O)NC[C@@H](F)C(C)(C)O)cn1 [Example 661, (R)-6-(3-cyanopyrrolo[1,2-b]pyridazin-7-yl)-N-(2-fluoro-3-hydroxy-3-methylbutyl)-4-((6-(methylamino)pyridin-3-yl)amino)nicotinamide]
IC50 [1]: < 1 nM | EC50 [2]: 19 nM

CC(=O)Nc1ccc(Nc2cc(-c3ccc4cc(C#N)cnn34)ncc2C(=O)NC[C@@H](F)C(C)(C)O)cn1 [Example 662, (R)-4-((6-acetamido-pyridin-3-yl)amino)-6-(3-cyanopyrrolo[1,2-b]pyridazin-7-yl)-N-(2-fluoro-3-hydroxy-3-methylbutyl)nicotinamide]
IC50 [1]: < 1 nM | EC50 [2]: 12 nM

COCCOc1ncc(Nc2cc(-c3ccc4cc(C#N)cnn34)ncc2C(=O)NC[C@@H](F)C(C)(C)O)cn1 [Example 663, (R)-6-(3-cyanopyrrolo[1,2-b]pyridazin-7-yl)-N-(2-fluoro-3-hydroxy-3-methylbutyl)-4-((2-(2-methoxyethoxy)pyrimidin-5-yl)amino)nicotinamide]
IC50 [1]: < 1 nM | EC50 [2]: 52 nM
